From PMC2774256 (Bioorganic & medicinal chemistry, 2009)
Square brackets hold non-standard residues; d marks the D form. Ends that are not written are not given here. * marks the point of attachment. dNMeF = CN[C@H](Cc1ccccc1)C(=O)O; Cha = N[C@@H](CC1CCCCC1)C(=O)O; NMeL = CN[C@@H](CC(C)C)C(=O)O; dNMeV = CN[C@@H](C(=O)O)C(C)C; NMeV = CN[C@H](C(=O)O)C(C)C; Cbz = O=C(OCc1ccccc1)*; Bn = c1ccc(C*)cc1

Assays:
[1] = system: PL-45 pancreatic cancer cells; test: 3H-thymidine incorporation/growth inhibition assay
[2] = system: BxPC-3 pancreatic cancer cells; test: 3H-thymidine incorporation/growth inhibition assay

Substance | cytotoxicity / growth inhibition in words [1] | cytotoxicity / growth inhibition in words [2]
FLVK(Cbz)[NMeL] [Compound 68] | not toxic | not toxic
FL[NMeV]L[dF] [Compound 62] | relatively non-toxic | relatively non-toxic
FL[dV][dL]L [Compound 37] | not potent | not potent
F[dNMeF]V[Cha]L [Compound 49] | underwhelming cytotoxicity | underwhelming cytotoxicity
F[dNMeF]V[Cha]S(Bn) [Compound 60] | not effective | not effective
F[dNMeF][dV]LL [Compound 32] | cytotoxic | very poor cytotoxicity
[dF]L[NMeV][dL][dF] [Compound 61] | relatively non-toxic | relatively non-toxic
[dY][dNMeF]VLL [Compound 15] | cytotoxic | very poor cytotoxicity
cyclo(FL[dNMeV][dK][dF]) [Compound 64] | not toxic | not toxic
